Consider one compound from BindingDB's records for doi:10.1016/j.bmcl.2006.12.076 (Glaxosmithkline, 2007).

The structures appear in SMILES notation.

Assay [1] in a line: Antagonist activity at human recombinant CCR8 expressed in Th2 cells assessed as I309 mediated migration by chemotaxis assay.
A short description of assay [2]: Antagonist activity at human recombinant CCR8 expressed in HUT78 cells assessed as I309-mediated migration by chemotaxis assay.

Turning to `COc1ccc2nccc([C@@H]3CN(C4CCN(Cc5cc6ccccc6[nH]5)CC4)C(=O)O3)c2c1` [SB-649701], the figures for the half-inhibitory concentration (IC50) in assay [1] and in assay [2] were 100 nM and 501 nM, respectively.
